In patent publication US20240252652A1, “PROTEINS HAVING UNNATURAL AMINO ACIDS AND METHODS OF USE” (The Regents of the University of California, priority 2021, published 2024):

Experiments:
[1] = Cross-linking of azido-GD3 by SFY incorporated Siglec-7v in vitro (Western blot); type: biochemical; conditions: 60 μM Siglec-7v(127SFY), 2 mM azido-GD3
Description: FIGS. 17A-17D provide a comparative study between NHSF pretreated Siglec-7v (Siglec-7v-SF) and Siglec-7v(127SFY). […] Siglec-7v(127SFY) or Siglec-7v-SF was incubated with azido-GD3 or azido-lac followed with Western blot detection. The azido group was click reacted with alkyne-biotin for Western blot detection of GD3/lac. […] Cells were treated with protein, washed, stained with a fluorescently labeled antibody specific for the His×6 tag appended at the C-terminus of Siglec-7v, and quantified with flow cytometry. […] Pre-stained BT-20 cells were incubated with 12 μM Siglec-7v-SF or Siglec-7v(127SFY) for 2 h. Cells were then washed and incubated with NK-92 cells for 4 h. Cells were stained with propidium iodide and NK cytotoxicity was evaluated by flow cytometry. Control group: no protein treatment. The line and error bar represent mean±SEM; n=3 independent batches of Siglec-7v proteins. *** p<0.001; NS, not significant, multiple t test.
We then determined if SFY could enable Siglec-7v to cross-link the bound glycan ligand. Inspired by NHSF-mediated cross-linking of azido-GD3 through Lys on Siglec-7v protein, we incorporated SFY into individual Lys sites of Siglec-7v, including sites 20, 24, 75, 104, 127, 131, and 135. […] Cross-linking of azido-GD3 was detected for Siglec-7v(104SFY) and Siglec-7v(127SFY). […]

Siglec-7v with azido-GD3 = target: T1, Siglec-7v with azido-GD3 (Homo sapiens, UniProt Q9Y286, C41S); test: Small molecule mediated Siglec-7v cross-linking in vitro (Western blot); type: biochemical; conditions: for cross-linking of Siglec-7v with azido-GD3 (biotin band slightly above Siglec-7v): 60 μM Siglec-7v, 2 mM azido-GD3, 0.3 mM cross-linker, room temperature, UV for NHQM, HoQM
T1 construct: made in house; host or cells: E. coli BL21(DE3)
Description: We then investigated if the various function groups synthesized onto the cross-linkers (FIG. 1B) could achieve protein-glycan cross-linking using Siglec-7v and azido-GD3 as the model system. Siglec-7v (60 μM) was incubated with 2 mM azido-GD3 for 1 h at room temperature, followed by the addition of different cross-linkers to the solution. For samples treated with cross-linker NHQM or HoQM, UV light was applied to activate the cross-linker. Alkyne-biotin was subsequently clicked with azido-GD3 in the samples, and the biotin signal was detected with Western blot using streptavidin-HRP (FIG. 1E). […] (Ref. 20). The results here indicate that NHSF can be applied to cross-link protein-glycan interactions via the sulfonyl fluoride group.
To test if small molecule cross-linker could cross-link Siglec-7v with azido-GD3 and azido-lac, 60 μM Siglec-7v was incubated with 2 mM azido-GD3 or azido-lac in PBS buffer, pH 7.4 at room temperature for 1 hr. The solution was treated with or without 0.3 mM NHSF or NHBr or NHFS or NHQM or HoQM at room temperature for 1 hr, respectively. The NHQM or HoQM was then illuminated with or without UV for 15 mins at wavelength 365 nm. After that, 200 μM alkyne-biotin, 0.05 mM CuSO4, 1 mM THPTA and 1 mM sodium ascorbate were added and the reaction mixture was incubated at room temperature in dark environment for 0.5 hours. Samples were then boiled at 95° C. for 5 mins and run Western blot against 6× His tag antibody or streptavidin-horseradish peroxidase (HRP).

T1 sequence (Q9Y286 with tags, fused parts or gaps C41S): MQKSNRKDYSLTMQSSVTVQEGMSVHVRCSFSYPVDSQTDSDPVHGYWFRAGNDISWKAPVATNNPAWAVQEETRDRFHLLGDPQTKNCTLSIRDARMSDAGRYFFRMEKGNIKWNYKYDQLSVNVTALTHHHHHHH

With `CC(=O)N[C@H]1[C@H]([C@H](O)[C@H](O)CO)O[C@@](O[C@H]2[C@@H](O)[C@@H](CO)O[C@@H](O[C@H]3[C@H](O)[C@@H](O)C(O)O[C@@H]3CO)[C@@H]2O)(C(=O)O)C[C@@H]1O` (stereo partly shown) [3′-sialyllactose] as the molecule, how does the “effect of added ligand on crosslinking of siglec-7v(127SFY) with azido-GD3” value [1] read?
The value was “did not reduce”.

With `O=C(c1ccc(OCc2ccccc2[N+](=O)[O-])c(C(F)F)c1)N1CCN(C(=O)c2ccc(OCc3ccccc3[N+](=O)[O-])c(C(F)F)c2)CC1` [HoQM] as the molecule, how does the “cross-linking of Siglec-7v with azido-GD3 (biotin band slightly above Siglec-7v)” value (shortened to “cross-linking of Siglec-7v”) (Siglec-7v with azido-GD3) read?
The value was “not”.

For `O=C(Cc1ccc(OS(=O)(=O)F)cc1)ON1C(=O)CCC1=O` [NHFS, 2,5-dioxopyrrolidin-1-yl 2-(4-((fluorosulfonyl)oxy)-phenyl)acetate], which “cross-linking of Siglec-7v” value (Siglec-7v with azido-GD3) is on record?
The value was “not”.

Which “cross-linking of Siglec-7v” value (Siglec-7v with azido-GD3) does the source give for `O=C(ON1C(=O)CCC1=O)c1ccc(OCc2ccccc2[N+](=O)[O-])c(C(F)F)c1` [NHQM] here?
Its value is “not”.

With `O=C(CCNC(=O)c1ccc(S(=O)(=O)F)cc1)ON1C(=O)CC(S(=O)(=O)[O-])C1=O.[Na+]` (stereo not shown) [NHSF—C2, Sodium 1-((3-(4-(fluorosulfonyl)benzamido)propanoyl)oxy)-2,5-dioxopyrrolidine-3-sulfonate] as the molecule, how does the “cross-linking band intensity in comparison with NHSF” value (Siglec-7v with azido-GD3; Siglec-7v with azido-GD3) read?
Its value is 1.5 fold.

With `O=C(CCCNC(=O)c1ccc(S(=O)(=O)F)cc1)ON1C(=O)CC(S(=O)(=O)[O-])C1=O.[Na+]` (stereo not shown) [NHSF—C3, Sodium 1-((4-(4-(fluorosulfonyl)benzamido)butanoyl)oxy)-2,5-dioxopyrrolidine-3-sulfonate] as the molecule, how does the “cross-linking efficiency on further increase of the linker length” value (Siglec-7v with azido-GD3; Siglec-7v with azido-GD3) read?
The value was “lowered”.

With `O=C(CCCCCCCNC(=O)c1ccc(S(=O)(=O)F)cc1)ON1C(=O)CC(S(=O)(=O)[O-])C1=O.[Na+]` (stereo not shown) [NHSF—C7, sodium 1-((8-(4-(fluorosulfonyl)benzamido)octanoyl)oxy)-2,5-dioxopyrrolidine-3-sulfonate] as the molecule, how does the “cross-linking efficiency on further increase of the linker length” value (Siglec-7v with azido-GD3; Siglec-7v with azido-GD3) read?
The value was “lowered”.
